From ChEMBL document CHEMBL5226342, “Novel Reversible-Binding PET Ligands for Imaging Monoacylglycerol Lipase Based on the Piperazinyl Azetidine Scaffold” (J Med Chem, 2021) come the findings set out here.

Molecules are shown by their SMILES. The source made the active and inactive calls. The rule behind the calls is not given here.

Data set [1] concerns the target T1, Monoglyceride lipase (Mus musculus) (UniProt O35678).
T1 sequence (whole entry): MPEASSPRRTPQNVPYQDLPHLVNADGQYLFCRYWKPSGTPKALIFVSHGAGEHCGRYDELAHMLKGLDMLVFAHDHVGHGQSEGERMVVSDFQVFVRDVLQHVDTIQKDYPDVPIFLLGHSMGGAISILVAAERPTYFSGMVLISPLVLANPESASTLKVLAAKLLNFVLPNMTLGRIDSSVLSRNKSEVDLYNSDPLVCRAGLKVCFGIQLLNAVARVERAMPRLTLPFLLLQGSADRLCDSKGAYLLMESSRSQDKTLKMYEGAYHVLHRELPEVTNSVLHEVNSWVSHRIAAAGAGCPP
In words: Irreversible inhibition of MAGL in mouse brain membrane fraction assessed as enzyme recovery by measuring FP-rhodamine reactivity at 50 nM preincubated for 30 mins followed by FP-rhodamine challenge for 5 to 180 mins by Activity-Based Protein Profiling analysis. The following applies: time 35-210 min. The format is cell membranes.

The next data set has as its target hERG (KCNH2) (Homo sapiens, UniProt Q12809). In words: Inhibition of human ERG at 10 uM. It counts as toxicity.
The target in data set [2] is T2, Monoglyceride lipase (Rattus norvegicus) (UniProt Q8R431).
T2 sequence (whole entry): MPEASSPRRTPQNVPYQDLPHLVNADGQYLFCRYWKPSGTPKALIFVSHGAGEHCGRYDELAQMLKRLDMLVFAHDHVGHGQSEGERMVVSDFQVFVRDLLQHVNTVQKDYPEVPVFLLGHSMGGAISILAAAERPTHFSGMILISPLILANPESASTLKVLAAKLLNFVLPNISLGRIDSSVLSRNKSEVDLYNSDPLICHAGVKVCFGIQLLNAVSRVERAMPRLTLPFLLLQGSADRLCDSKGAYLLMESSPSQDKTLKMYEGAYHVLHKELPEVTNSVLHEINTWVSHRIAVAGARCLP
In words: Binding affinity to MAGL in rat cortex incubated for 1 hr in presence of MAGL inhibitor, (1-(4-fluorophenyl)-1H-indol-5-yl)(3-(4-(pyrimidin-2-yl)piperazin-1-yl)azetidin-1-yl)methanone by autoradiography. It counts as tissue-based. The following applies: tested as the 18F-labelled form.

The target of data set [3] is T2, Monoglyceride lipase (Rattus norvegicus). Put plainly: Binding affinity to MAGL in rat striatum incubated for 1 hr in presence of MAGL inhibitor, (1-(4-fluorophenyl)-1H-indol-5-yl)(3-(4-(pyrimidin-2-yl)piperazin-1-yl)azetidin-1-yl)methanone by autoradiography. The format is tissue-based. The conditions noted are these: tested as the 18F-labelled form.
For data set [4] the target is unchanged. Put plainly: Binding affinity to MAGL in rat hippocampus incubated for 1 hr in presence of MAGL inhibitor, (1-(4-fluorophenyl)-1H-indol-5-yl)(3-(4-(pyrimidin-2-yl)piperazin-1-yl)azetidin-1-yl)methanone by autoradiography. The conditions noted are these: tested as the 18F-labelled form. It counts as tissue-based.
The nature of data set [5]: Lipophilicity, logD of the compound by shake flask method. It counts as physicochemical. The following applies: octanol/water.
The target of data set [6] is T3, Fatty-acid amide hydrolase 1 (Mus musculus) (UniProt O08914).
T3 sequence (whole entry): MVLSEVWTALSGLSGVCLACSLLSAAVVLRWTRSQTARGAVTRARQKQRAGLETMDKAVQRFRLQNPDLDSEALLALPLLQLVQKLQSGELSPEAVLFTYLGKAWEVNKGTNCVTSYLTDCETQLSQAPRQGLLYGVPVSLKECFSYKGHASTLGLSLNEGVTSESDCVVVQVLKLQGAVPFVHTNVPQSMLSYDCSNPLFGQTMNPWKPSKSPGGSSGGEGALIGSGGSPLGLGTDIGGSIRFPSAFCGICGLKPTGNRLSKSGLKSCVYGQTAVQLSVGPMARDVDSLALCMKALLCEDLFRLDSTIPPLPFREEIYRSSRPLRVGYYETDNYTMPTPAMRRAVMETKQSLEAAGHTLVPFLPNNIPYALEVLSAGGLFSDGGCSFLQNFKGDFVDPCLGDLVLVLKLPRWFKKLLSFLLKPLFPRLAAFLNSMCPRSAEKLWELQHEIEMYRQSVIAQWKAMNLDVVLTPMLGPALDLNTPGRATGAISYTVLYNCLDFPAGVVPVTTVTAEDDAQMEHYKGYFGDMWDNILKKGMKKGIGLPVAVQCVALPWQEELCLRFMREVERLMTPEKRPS
In words: Displacement of FP-rhodamine from FAAH in mouse brain membrane fraction preincubated for 30 mins followed by FP-rhodhamine addition for 10 mins by Activity-Based Protein Profiling analysis. It counts as cell membranes. The following applies: time 40.0 min.

The target in data set [7] is T1, Monoglyceride lipase (Mus musculus). The conditions noted are these: Brain, Membrane, dose 50.0 nM, time 35-210 min.
The target of data set [8] is T4, Neutral cholesterol ester hydrolase 1 (Mus musculus) (UniProt Q8BLF1).
T4 sequence (whole entry): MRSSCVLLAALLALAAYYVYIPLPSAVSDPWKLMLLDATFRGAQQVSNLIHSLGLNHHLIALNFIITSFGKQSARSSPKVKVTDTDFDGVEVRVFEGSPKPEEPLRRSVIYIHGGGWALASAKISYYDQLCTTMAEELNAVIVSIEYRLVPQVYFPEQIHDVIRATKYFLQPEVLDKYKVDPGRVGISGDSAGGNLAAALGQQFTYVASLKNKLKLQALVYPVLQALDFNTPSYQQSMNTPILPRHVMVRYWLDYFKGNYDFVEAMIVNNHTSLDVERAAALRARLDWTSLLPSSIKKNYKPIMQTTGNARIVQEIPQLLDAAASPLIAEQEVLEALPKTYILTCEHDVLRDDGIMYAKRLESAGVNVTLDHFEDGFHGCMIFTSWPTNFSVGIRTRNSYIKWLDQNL
In words: Displacement of FP-rhodamine from KIAA1363 in mouse brain membrane fraction preincubated for 30 mins followed by FP-rhodhamine addition for 10 mins by Activity-Based Protein Profiling analysis. The conditions noted are these: time 40.0 min. The format is cell membranes.

For data set [9], the target named is T2, Monoglyceride lipase (Rattus norvegicus). In words: Binding affinity to MAGL in rat cerebellum incubated for 1 hr in presence of MAGL inhibitor, (1-(4-fluorophenyl)-1H-indol-5-yl)(3-(4-(pyrimidin-2-yl)piperazin-1-yl)azetidin-1-yl)methanone by autoradiography. It counts as tissue-based. The conditions noted are these: tested as the 18F-labelled form.
In data set [10] the target is CaV1.2 (voltage-dependent L-type calcium channel subunit alpha-1C) (Homo sapiens, UniProt Q13936). In words: Inhibition of human CaV1.2 at 10 uM.
Data set [11] has as its target T5, Monoacylglycerol lipase ABHD6 (Mus musculus) (UniProt Q8R2Y0).
T5 sequence (whole entry): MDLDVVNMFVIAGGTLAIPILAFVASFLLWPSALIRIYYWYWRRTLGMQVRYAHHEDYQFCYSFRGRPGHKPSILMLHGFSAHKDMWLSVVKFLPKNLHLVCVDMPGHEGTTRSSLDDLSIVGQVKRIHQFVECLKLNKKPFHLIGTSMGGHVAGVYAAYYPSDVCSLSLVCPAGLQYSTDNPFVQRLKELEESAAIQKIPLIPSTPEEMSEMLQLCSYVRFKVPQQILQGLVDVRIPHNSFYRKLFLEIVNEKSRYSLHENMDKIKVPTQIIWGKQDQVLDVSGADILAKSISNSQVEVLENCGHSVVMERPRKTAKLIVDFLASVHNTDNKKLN
In words: Displacement of FP-rhodamine from ABHD6 in mouse brain membrane fraction preincubated for 30 mins followed by FP-rhodhamine addition for 10 mins by Activity-Based Protein Profiling analysis. It counts as cell membranes. The conditions noted are these: time 40.0 min.

Data set [12] deals with T6, Lysophosphatidylserine lipase ABHD12 (Mus musculus) (UniProt Q99LR1).
T6 sequence (whole entry): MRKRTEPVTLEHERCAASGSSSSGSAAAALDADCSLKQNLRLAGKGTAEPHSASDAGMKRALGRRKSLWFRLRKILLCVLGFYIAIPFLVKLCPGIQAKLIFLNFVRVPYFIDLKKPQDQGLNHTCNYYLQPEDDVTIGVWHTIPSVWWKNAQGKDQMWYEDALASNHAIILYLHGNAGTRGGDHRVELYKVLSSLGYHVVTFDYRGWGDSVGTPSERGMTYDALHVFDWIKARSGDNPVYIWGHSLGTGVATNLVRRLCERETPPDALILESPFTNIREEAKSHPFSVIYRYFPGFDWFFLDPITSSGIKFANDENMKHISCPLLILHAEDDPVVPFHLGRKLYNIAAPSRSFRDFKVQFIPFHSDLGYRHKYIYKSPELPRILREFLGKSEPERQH
Put plainly: Displacement of FP-rhodamine from ABHD12 in mouse brain membrane fraction preincubated for 30 mins followed by FP-rhodhamine addition for 10 mins by Activity-Based Protein Profiling analysis. It counts as cell membranes. The following applies: time 40.0 min.

Data set [13] concerns the target T2, Monoglyceride lipase (Rattus norvegicus). In words: Binding affinity to MAGL in rat thalamus incubated for 1 hr in presence of MAGL inhibitor, (1-(4-fluorophenyl)-1H-indol-5-yl)(3-(4-(pyrimidin-2-yl)piperazin-1-yl)azetidin-1-yl)methanone by autoradiography. It counts as tissue-based. The following applies: tested as the 18F-labelled form.

The inhibition is the drop in the measured response relative to a control, in per cent. The logD is lipophilicity at a set pH, counting ionised and neutral species.

Chain of hERG (KCNH2) (Q12809 whole entry): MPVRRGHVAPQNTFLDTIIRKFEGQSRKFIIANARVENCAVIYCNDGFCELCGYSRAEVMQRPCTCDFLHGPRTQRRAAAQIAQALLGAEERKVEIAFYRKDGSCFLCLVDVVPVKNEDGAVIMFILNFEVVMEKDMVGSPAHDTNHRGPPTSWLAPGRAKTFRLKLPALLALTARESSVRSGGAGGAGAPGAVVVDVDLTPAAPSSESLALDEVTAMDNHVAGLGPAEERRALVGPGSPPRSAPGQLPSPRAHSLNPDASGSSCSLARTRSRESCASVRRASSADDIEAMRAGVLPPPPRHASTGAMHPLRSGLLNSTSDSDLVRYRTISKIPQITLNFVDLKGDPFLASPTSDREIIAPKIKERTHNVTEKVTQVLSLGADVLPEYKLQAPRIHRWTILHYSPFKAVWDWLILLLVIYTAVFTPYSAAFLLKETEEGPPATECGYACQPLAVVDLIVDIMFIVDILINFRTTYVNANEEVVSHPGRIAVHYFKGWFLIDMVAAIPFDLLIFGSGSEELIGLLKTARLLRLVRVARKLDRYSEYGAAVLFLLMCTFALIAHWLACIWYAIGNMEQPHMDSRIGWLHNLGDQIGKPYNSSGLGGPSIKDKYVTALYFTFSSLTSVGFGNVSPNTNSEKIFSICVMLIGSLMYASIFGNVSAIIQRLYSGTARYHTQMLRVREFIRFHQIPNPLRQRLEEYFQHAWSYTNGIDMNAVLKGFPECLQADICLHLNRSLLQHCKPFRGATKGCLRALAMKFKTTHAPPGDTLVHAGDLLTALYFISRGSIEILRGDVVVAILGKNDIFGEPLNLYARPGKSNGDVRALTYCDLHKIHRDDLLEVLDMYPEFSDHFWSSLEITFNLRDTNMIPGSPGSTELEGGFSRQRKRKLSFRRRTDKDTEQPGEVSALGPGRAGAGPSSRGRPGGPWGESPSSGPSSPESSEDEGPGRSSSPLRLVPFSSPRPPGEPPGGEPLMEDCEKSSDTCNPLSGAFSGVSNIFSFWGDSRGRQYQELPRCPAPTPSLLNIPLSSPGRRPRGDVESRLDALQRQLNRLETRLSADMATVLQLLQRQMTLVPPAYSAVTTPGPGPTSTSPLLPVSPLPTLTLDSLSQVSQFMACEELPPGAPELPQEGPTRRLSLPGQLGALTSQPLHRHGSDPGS
Chain of CaV1.2 (voltage-dependent L-type calcium channel subunit alpha-1C) (Q13936 whole entry): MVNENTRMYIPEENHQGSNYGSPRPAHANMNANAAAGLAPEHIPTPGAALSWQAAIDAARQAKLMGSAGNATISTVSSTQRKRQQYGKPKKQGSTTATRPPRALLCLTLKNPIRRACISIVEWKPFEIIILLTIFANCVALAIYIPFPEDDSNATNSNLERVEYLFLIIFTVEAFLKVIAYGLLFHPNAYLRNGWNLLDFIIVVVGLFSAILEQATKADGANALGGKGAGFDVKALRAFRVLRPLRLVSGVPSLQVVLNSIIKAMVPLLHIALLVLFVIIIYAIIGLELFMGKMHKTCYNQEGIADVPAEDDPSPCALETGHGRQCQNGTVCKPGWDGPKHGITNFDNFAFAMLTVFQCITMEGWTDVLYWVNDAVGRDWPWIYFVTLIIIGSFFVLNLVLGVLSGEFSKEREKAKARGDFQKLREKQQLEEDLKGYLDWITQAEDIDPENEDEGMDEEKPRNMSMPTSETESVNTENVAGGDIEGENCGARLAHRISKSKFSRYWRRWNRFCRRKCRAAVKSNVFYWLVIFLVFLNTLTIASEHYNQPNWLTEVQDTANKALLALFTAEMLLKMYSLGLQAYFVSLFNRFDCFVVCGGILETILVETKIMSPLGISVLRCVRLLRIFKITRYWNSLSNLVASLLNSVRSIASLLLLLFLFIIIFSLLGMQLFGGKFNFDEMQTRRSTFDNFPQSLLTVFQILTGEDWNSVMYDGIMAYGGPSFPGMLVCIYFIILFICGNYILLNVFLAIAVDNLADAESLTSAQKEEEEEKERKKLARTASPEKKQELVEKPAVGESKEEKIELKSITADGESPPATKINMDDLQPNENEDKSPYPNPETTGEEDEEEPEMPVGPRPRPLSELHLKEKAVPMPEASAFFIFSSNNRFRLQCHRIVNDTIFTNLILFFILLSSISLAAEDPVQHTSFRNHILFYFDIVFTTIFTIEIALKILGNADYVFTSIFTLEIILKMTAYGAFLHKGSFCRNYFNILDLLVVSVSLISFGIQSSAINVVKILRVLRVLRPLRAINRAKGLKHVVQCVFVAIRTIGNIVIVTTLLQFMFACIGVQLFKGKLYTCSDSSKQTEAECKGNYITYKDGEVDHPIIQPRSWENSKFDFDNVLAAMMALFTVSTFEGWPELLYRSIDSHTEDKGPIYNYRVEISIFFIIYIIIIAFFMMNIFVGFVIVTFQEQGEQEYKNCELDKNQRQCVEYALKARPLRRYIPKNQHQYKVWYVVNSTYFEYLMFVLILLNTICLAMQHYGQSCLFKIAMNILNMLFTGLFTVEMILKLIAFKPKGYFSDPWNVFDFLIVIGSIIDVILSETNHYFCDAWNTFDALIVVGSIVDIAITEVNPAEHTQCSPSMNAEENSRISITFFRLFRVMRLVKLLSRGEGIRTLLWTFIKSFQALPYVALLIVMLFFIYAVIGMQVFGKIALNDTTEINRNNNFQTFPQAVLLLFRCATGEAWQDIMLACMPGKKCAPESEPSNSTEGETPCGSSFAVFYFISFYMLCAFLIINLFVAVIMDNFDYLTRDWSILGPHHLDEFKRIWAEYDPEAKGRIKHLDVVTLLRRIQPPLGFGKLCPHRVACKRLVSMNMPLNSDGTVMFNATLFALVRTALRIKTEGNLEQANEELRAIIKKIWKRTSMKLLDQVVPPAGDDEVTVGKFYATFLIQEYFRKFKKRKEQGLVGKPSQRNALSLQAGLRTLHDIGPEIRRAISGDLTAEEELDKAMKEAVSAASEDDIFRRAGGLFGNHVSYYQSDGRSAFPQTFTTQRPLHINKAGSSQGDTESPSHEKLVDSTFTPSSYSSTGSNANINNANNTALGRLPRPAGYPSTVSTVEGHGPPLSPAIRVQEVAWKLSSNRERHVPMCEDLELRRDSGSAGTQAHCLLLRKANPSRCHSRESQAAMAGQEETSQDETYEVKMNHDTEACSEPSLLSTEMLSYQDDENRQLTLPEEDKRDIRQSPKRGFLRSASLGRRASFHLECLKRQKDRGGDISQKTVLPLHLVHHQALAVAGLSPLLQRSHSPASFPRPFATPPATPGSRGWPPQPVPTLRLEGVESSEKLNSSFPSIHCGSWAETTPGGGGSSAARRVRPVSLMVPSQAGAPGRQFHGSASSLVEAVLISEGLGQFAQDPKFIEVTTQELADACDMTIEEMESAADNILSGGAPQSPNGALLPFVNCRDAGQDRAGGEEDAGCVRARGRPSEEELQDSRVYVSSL

With `O=C(ON1C(=O)CCC1=O)N1CCN(C(c2ccc(Cl)cc2)c2ccc(Cl)cc2)CC1`, the inhibition result in [1] is “Active”.

For `O=C(c1ccc2c(ccn2-c2ccc(F)cc2)c1)N1CC(N2CCN(c3ncccn3)CC2)C1`, the inhibition at 10 µM (against hERG (KCNH2); in [10]) was below 50% in each case. The result in data set [2], in [3], in data set [4], in [9] and in data set [13] was inactive. This molecule also returned a pH-dependent lipophilicity (logD) in data set [5] of 3.68. Besides, the inhibition entry in [6], in data set [8], in data set [11] and in data set [12] was “inactive” each time. Besides, the inhibition entry in [7] was “Active”.
